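Where inhibition never reached the appropriate level, the endpoint shown equals the highest concentration tested. Otherwise, values were interpolated linearly from a five-concentration, 48-hour dose response in 96-well plates. At the GI50, growth is halved. Definition used: TGI = concentration required for complete inhibition of growth.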
How the values were obtained:
Assay in all cases: NCI-60 cell line screen, 48 h
786-0 renal = system: 786-0 renal
A498 renal = system: A498 renal
A549 NSCLC = system: A549 NSCLC
ACHN renal = system: ACHN renal
BT-549 breast = system: BT-549 breast
CAKI-1 renal = system: CAKI-1 renal
CCRF-CEM leukemia = system: CCRF-CEM leukemia
COLO 205 colon = system: COLO 205 colon
DU-145 prostate = system: DU-145 prostate
EKVX NSCLC = system: EKVX NSCLC
HCC-2998 colon = system: HCC-2998 colon
HCT-116 colon = system: HCT-116 colon
HCT-15 colon = system: HCT-15 colon
HL-60(TB) leukemia = system: HL-60(TB) leukemia
HOP-62 NSCLC = system: HOP-62 NSCLC
HOP-92 NSCLC = system: HOP-92 NSCLC
HS 578T breast = system: HS 578T breast
HT29 colon = system: HT29 colon
IGROV1 ovarian = system: IGROV1 ovarian
K-562 leukemia = system: K-562 leukemia
KM12 colon = system: KM12 colon
LOX IMVI melanoma = system: LOX IMVI melanoma
M14 melanoma = system: M14 melanoma
MALME-3M melanoma = system: MALME-3M melanoma
MCF7 breast = system: MCF7 breast
MDA-MB-231 breast = system: MDA-MB-231 breast
MDA-MB-435 = system: MDA-MB-435
MOLT-4 leukemia = system: MOLT-4 leukemia
NCI-H226 lung = system: NCI-H226 lung
NCI-H23 lung = system: NCI-H23 lung
NCI-H460 lung = system: NCI-H460 lung
NCI-H522 lung = system: NCI-H522 lung
NCI/ADR-RES ovarian = system: NCI/ADR-RES ovarian
OVCAR-3 ovarian = system: OVCAR-3 ovarian
OVCAR-4 ovarian = system: OVCAR-4 ovarian
OVCAR-5 ovarian = system: OVCAR-5 ovarian
OVCAR-8 ovarian = system: OVCAR-8 ovarian
PC-3 prostate = system: PC-3 prostate
RPMI-8226 leukemia = system: RPMI-8226 leukemia
RXF 393 renal = system: RXF 393 renal
SF-268 CNS = system: SF-268 CNS
SF-295 CNS = system: SF-295 CNS
SF-539 CNS = system: SF-539 CNS
SK-MEL-2 melanoma = system: SK-MEL-2 melanoma
SK-MEL-28 melanoma = system: SK-MEL-28 melanoma
SK-MEL-5 melanoma = system: SK-MEL-5 melanoma
SK-OV-3 ovarian = system: SK-OV-3 ovarian
SN12C renal = system: SN12C renal
SNB-19 CNS = system: SNB-19 CNS
SNB-75 CNS = system: SNB-75 CNS
SW-620 colon = system: SW-620 colon
T-47D breast = system: T-47D breast
TK-10 renal = system: TK-10 renal
U251 CNS = system: U251 CNS
UACC-62 melanoma = system: UACC-62 melanoma
UO-31 renal = system: UO-31 renal

Question: What does the source list for COc1cc(-c2csc(NC(=O)Nc3ccc(Cl)c(C(F)(F)F)c3)n2)cc(OC)c1OC?
Answer: GI50 (786-0 renal): 2.08 µM; TGI (786-0 renal): 6.47 µM; GI50 (A498 renal): 0.26 µM; TGI (A498 renal): 1.71 µM; GI50 (A549 NSCLC): 1.38 µM; TGI (A549 NSCLC): 4.75 µM; GI50 (ACHN renal): 1.27 µM; TGI (ACHN renal): 3.57 µM; GI50 (BT-549 breast): 1.94 µM; TGI (BT-549 breast): 5.55 µM; GI50 (CAKI-1 renal): 1.37 µM; TGI (CAKI-1 renal): 3.62 µM; GI50 (CCRF-CEM leukemia): 2.24 µM; TGI (CCRF-CEM leukemia): 12.8 µM; GI50 (COLO 205 colon): 1.65 µM; TGI (COLO 205 colon): 3.46 µM; GI50 (DU-145 prostate): 1.79 µM; TGI (DU-145 prostate): 6.67 µM; GI50 (EKVX NSCLC): 1.19 µM; TGI (EKVX NSCLC): 7.03 µM; GI50 (HCC-2998 colon): 2.95 µM; TGI (HCC-2998 colon): 10.6 µM; GI50 (HCT-116 colon): 1.42 µM; TGI (HCT-116 colon): 7.93 µM; GI50 (HCT-15 colon): 1.54 µM; TGI (HCT-15 colon): 10.7 µM; GI50 (HL-60(TB) leukemia): 1.76 µM; TGI (HL-60(TB) leukemia): 6.05 µM; GI50 (HOP-62 NSCLC): 1.7 µM; TGI (HOP-62 NSCLC): 4.57 µM; GI50 (HOP-92 NSCLC): 0.357 µM; TGI (HOP-92 NSCLC): 2.22 µM; GI50 (HS 578T breast): 1.67 µM; TGI (HS 578T breast): 5.47 µM; GI50 (HT29 colon): 1.8 µM; TGI (HT29 colon): 4.68 µM; GI50 (IGROV1 ovarian): 1.83 µM; TGI (IGROV1 ovarian): 9.3 µM; GI50 (K-562 leukemia): 1.16 µM; TGI (K-562 leukemia): 11.3 µM; GI50 (KM12 colon): 0.764 µM; TGI (KM12 colon): 4.93 µM; GI50 (LOX IMVI melanoma): 1.53 µM; TGI (LOX IMVI melanoma): 3.48 µM; GI50 (M14 melanoma): 2.26 µM; TGI (M14 melanoma): 7.3 µM; GI50 (MALME-3M melanoma): 1.97 µM; TGI (MALME-3M melanoma): 5.57 µM; GI50 (MCF7 breast): 1.87 µM; TGI (MCF7 breast): 10.1 µM; GI50 (MDA-MB-231 breast): 1.47 µM; TGI (MDA-MB-231 breast): 3.93 µM; GI50 (MDA-MB-435): 1.81 µM; TGI (MDA-MB-435): 4.84 µM; GI50 (MOLT-4 leukemia): 1.13 µM; TGI (MOLT-4 leukemia): 4.35 µM; GI50 (NCI-H226 lung): 1.74 µM; TGI (NCI-H226 lung): 6.03 µM; GI50 (NCI-H23 lung): 1.47 µM; TGI (NCI-H23 lung): 6.06 µM; GI50 (NCI-H460 lung): 1.37 µM; TGI (NCI-H460 lung): 3.5 µM; GI50 (NCI-H522 lung): 1.1 µM; TGI (NCI-H522 lung): 3.57 µM; GI50 (NCI/ADR-RES ovarian): 1.5 µM; TGI (NCI/ADR-RES ovarian): 5.53 µM; GI50 (OVCAR-3 ovarian): 1.16 µM; TGI (OVCAR-3 ovarian): 3.12 µM; GI50 (OVCAR-4 ovarian): 1.15 µM; TGI (OVCAR-4 ovarian): 4.53 µM; GI50 (OVCAR-5 ovarian): 2.35 µM; TGI (OVCAR-5 ovarian): 10.5 µM; GI50 (OVCAR-8 ovarian): 1.38 µM; TGI (OVCAR-8 ovarian): 3.66 µM; GI50 (PC-3 prostate): 0.494 µM; TGI (PC-3 prostate): 3.36 µM; GI50 (RPMI-8226 leukemia): 0.573 µM; TGI (RPMI-8226 leukemia): 4.1 µM; GI50 (RXF 393 renal): 1.6 µM; TGI (RXF 393 renal): 3.9 µM; GI50 (SF-268 CNS): 2.25 µM; TGI (SF-268 CNS): 10.4 µM; GI50 (SF-295 CNS): 1.13 µM; TGI (SF-295 CNS): 2.64 µM; GI50 (SF-539 CNS): 1.89 µM; TGI (SF-539 CNS): 5.47 µM; GI50 (SK-MEL-2 melanoma): 1.8 µM; TGI (SK-MEL-2 melanoma): 4.57 µM; GI50 (SK-MEL-28 melanoma): 2.6 µM; TGI (SK-MEL-28 melanoma): 11.3 µM; GI50 (SK-MEL-5 melanoma): 1.18 µM; TGI (SK-MEL-5 melanoma): 2.44 µM; GI50 (SK-OV-3 ovarian): 1.98 µM; TGI (SK-OV-3 ovarian): 4.55 µM; GI50 (SN12C renal): 1.76 µM; TGI (SN12C renal): 6.6 µM; GI50 (SNB-19 CNS): 1.93 µM; TGI (SNB-19 CNS): 6.97 µM; GI50 (SNB-75 CNS): 1.21 µM; TGI (SNB-75 CNS): 3.17 µM; GI50 (SW-620 colon): 2.06 µM; TGI (SW-620 colon): 10.5 µM; GI50 (T-47D breast): 0.885 µM; TGI (T-47D breast): 4.07 µM; GI50 (TK-10 renal): 1.78 µM; TGI (TK-10 renal): 5.03 µM; GI50 (U251 CNS): 1.41 µM; TGI (U251 CNS): 3.19 µM; GI50 (UACC-62 melanoma): 1.24 µM; TGI (UACC-62 melanoma): 3.75 µM; GI50 (UO-31 renal): 1.65 µM; TGI (UO-31 renal): 5.64 µM
